{
  "source": "patent US12691130B2",
  "about": "“Compositions and methods for improving cognitive function” (Diamond Therapeutics Inc., priority 2019, dated 2026)",
  "key": {"5-HT2A receptor": {"molecular_target": "5-HT2A receptor (Rattus norvegicus, UniProt P14842)", "sequence (P14842 whole entry)": "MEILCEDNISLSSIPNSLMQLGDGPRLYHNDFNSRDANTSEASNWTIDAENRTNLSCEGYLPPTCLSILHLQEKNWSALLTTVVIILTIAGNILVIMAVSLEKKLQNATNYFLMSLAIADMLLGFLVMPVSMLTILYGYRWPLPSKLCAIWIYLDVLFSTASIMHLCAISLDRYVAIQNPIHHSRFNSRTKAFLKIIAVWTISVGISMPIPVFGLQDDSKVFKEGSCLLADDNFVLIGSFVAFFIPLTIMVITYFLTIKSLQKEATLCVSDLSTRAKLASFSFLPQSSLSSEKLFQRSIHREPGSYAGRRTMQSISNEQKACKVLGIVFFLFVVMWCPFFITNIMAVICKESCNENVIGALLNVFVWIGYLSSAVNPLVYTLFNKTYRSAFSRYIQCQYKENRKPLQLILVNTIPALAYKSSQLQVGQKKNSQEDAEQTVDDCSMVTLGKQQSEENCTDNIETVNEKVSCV", "assay": "Dose finding: behavioral syndrome, wet dog shakes (WDS) and back muscle contractions (BMC)", "conditions": "rats", "experimental": "The total number (N) of wet dog shakes (WDS) and back muscle contractions (BMC) is plotted against dose (mg/kg).\nPsilocybin was tested at a dose range of 0.03-10.0 mg/kg administered sub-cutaneously (S.C.) Behavioral syndrome including wet dog shakes (WDS) and back muscle contractions (BMC) are characteristic of 5-HT2A receptor activity and potentially indicative of psychomotor signs. […] There is a parallel between behaviors such as WDS in rats and hallucination in humans (Behavioral Neurobiology of Psychedelic Drugs, Halberstadt, Adam, Vollenweider, Franz X., Nichols, David E. (Eds.), Springer, 2018, p 161)."}, "rats": {"system": "rats", "assay": "Dose finding: locomotor activity (distance travelled)", "type": "in vivo", "source_text": "Stimulant drugs cause far larger increases in distance travelled with escalating doses, reflective of a direct motor stimulant property not seen with psilocybin."}, "Long Evans rats [1]": {"system": "Long Evans rats", "assay": "Progressive ratio (PR) test of motivation", "type": "in vivo", "experimental": "High responders are defined as rats completing the highest tertile of lever presses in the baseline test; low responders are rats completing the bottom tertile of lever presses in the baseline test. Asterisk (*) indicates statistical significance between high and low responders.\n(§1) Experiments were conducted to test psilocybin doses in the range of 0.05-0.2 mg/kg psilocybin administered S.C. across progressive ratio (PR) and 5-choice serial reaction time task (5CSRTT) to examine the effect of psilocybin on endophenotypes of motivation and attention. In each study, a population of out-bred Long Evans rats was first tested as a group for response to the PR and 5CSRTT. Each group was then divided into sub-groups by tertiles according to performance, and then exposed to various dose levels immediately prior to re-testing at various psilocybin dose levels.\nThe PR test is used to answer how willing the test subject is to work for food (i.e. test of motivation). A single 45 mg food pellet (i.e. reinforcer) is made available to the test animal based on lever press response. To obtain each successive pellet, the animal must make increasingly more lever presses. Typically, a progression of 2, 4, 6, 9, 12, 15, 20, 25, 32, 40, 50, 62, 77, 95, 118, etc. is used, derived from the equation: […]\nAt some point, the animal gives up as the motor demands to obtain a single pellet are not deemed worthwhile (i.e. animal reaches “break point” defined as animal's failure to earn a food pellet in 20 minutes).\nPsilocybin was administered to rats S.C. at doses of 0.05, 0.1 and 0.2 mg/kg.\nRats were then sub-grouped into tertiles based on the number of lever presses for food at baseline, so that within the test population of 36 animals, 12 animals were identified as low responders, characterized by low motivation and potentially corresponding to low motivation endophenotype representative of clinical depression. Twelve animals were identified as high responders. There was a statistically significant difference between the high and low responders. […] This represents a motivational enhancing effect of psilocybin in the cohort corresponding to a low motivation endophenotype representative of clinical depression."}, "Long Evans rats [2]": {"system": "Long Evans rats", "assay": "5-choice serial reaction time task (5CSRTT), standard conditions, 5 s ITI", "type": "in vivo", "experimental": "Asterisk (*) indicates statistical difference vs. vehicle. […] High performers are defined as rats completing the highest tertile of Hits or Correct nose-pokes in the baseline test; low performers are rats completing the bottom tertile of Hits or Correct nose-pokes in the baseline test.\nAsterisk (*) indicates statistical significance vs. vehicle.\nas §1\nThe 5CSRTT involves evaluating test subject response to a brief visual stimulus (Higgins, Guy & Silenieks, Leonardo. (2017). Rodent Test of Attention and Impulsivity: The 5-Choice Serial Reaction Time Task: The 5-Choice Serial Reaction Time Task. 10.1002/cpph.27). Animals are trained to make a nose-poke response to a stimulus location in order to collect a food reward. The task allows the experimenter to measure animal performance in multiple domains including: • Attention • Impulsivity • Perseveration • Speed of response\nA strength of the test is its flexible configuration to challenge test subjects: • Standard test conditions (0.75 s stimulus duration (SD), 5 s inter-trial interval (ITI), 100 trials) • Multiple short stimulus duration (mSD) (0.03-1 s SD) • Fixed long ITI (5 s vs. 10 s ITI) • Multiple ultrashort ITI (2-5 s ITI) • Extended 250 trials\nAsterisk (*) indicates statistical significance vs. vehicle. (FIG. 3A).\nWhen this population is segmented into tertiles according to performance based on accuracy (% correct, calculated as #correct/(#correct+ #incorrect)*100), the lowest performing tertile (N=8) are considered to be low attentive and potentially representative of a low attentive endophenotype of depression (FIG. 6A). Low attentive rats also score poorly on % hit (FIG. 6B) and have a slower response speed (FIG. 6D). […] Asterisk (*) indicates statistical significance vs. vehicle."}, "Long Evans rats [3]": {"system": "Long Evans rats", "assay": "5CSRTT with 10 s ITI, premature (PREM) and perseverative (PSV) responses", "type": "in vivo", "conditions": "0.05 mg/kg S.C., 24 rats", "experimental": "A) Graphs show increase in PREM and PSV responses under a 5 second inter-trial interval (ITI) which establishes a baseline (Base) and a 10 second ITI across 24 animals across two doses of psilocybin (0.05 mg/kg and 0.1 mg/kg). Standard deviation is indicated by error bars; asterisks (*) indicate significance vs. vehicle (P=0.05) using T-test. B) Graphs show effects of psilocybin on PREM and PSV in low performer and high performer subgroups. Standard error of the mean is indicated by error bars; asterisks (*) indicate significance vs. vehicle (P<0.01) using T-test. High performers are defined as rats with the highest tertile of premature responses in the baseline test; low performers are rats with the bottom tertile of premature responses in the baseline test.\nas §1, with “levels. […]” for “levels.”"}, "[4]": {"assay": "Psilocybin plasma pharmacokinetics after s.c. psilocybin", "type": "in vivo", "conditions": "rats", "experimental": "Psilocybin doses of 0.05, 0.1, 1, 10 mg/kg were used to evaluate psilocybin and psilocin PK in rats.\nDetails of the plasma concentration studies are shown in Tables 1-8 (psilocybin) and 9-16 (psilocin). Values in italics are below the lower level of quantitation (BLQ, <1 ng/mL) but were included in calculations. Values in bold and underlined are considered to be outliers and were omitted from calculations. Measured dosing solution concentrations were 0.0460, 0.0967, 0.948 and 9.65 mg/mL for 0.05, 0.1, 1 and 10 […]."}},
  "note": "“Also recorded” adds a separate entry of the source.",
  "data": [
    {"smiles": "CN(C)CCc1c[nH]c2cccc(OP(=O)(O)O)c12", "note": "[psilocybin, 4-phosphoryloxy-N,N-dimethyltryptamine]", "values": [
      {"measurement": "signs of behavioral syndrome (WDS, BMC)", "setting": "5-HT2A receptor; 0.3 mg/kg I.P and higher", "value": "significant signs of behavior syndrome"},
      {"measurement": "signs of behavioral syndrome (WDS, BMC)", "setting": "5-HT2A receptor; 0.03-0.1 mg/kg S.C.", "value": "no signs of behavioral syndrome"},
      {"measurement": "distance travelled", "setting": "rats; high doses", "value": "slightly decreased distanced travelled"},
      {"measurement": "increase in distance travelled", "setting": "rats; low doses", "value": "0.3-0.4 fold"},
      {"measurement": "PR food responding (lever presses, break point)", "setting": "Long Evans rats [1]; 0.05 mg/kg S.C., low responder subgroup (12 rats)", "value": "an increase in food responding in low responder subgroup; also recorded: Significant improvements"},
      {"measurement": "PR food responding", "setting": "Long Evans rats [1]; 0.1 mg/kg S.C., low responder subgroup (12 rats)", "value": "did not produce an increase in food responding"},
      {"measurement": "number of lever presses or break points (rewards earned)", "setting": "Long Evans rats [1]; 0.05, 0.1 and 0.2 mg/kg S.C., entire study population of 36 rats", "value": "None of these doses were observed to cause obvious changes in the number of lever presses or break points"},
      {"measurement": "PR response (lever presses)", "setting": "Long Evans rats [1]; 0.05-0.2 mg/kg S.C., high responder subgroup (12 rats)", "value": "no effect on response in high responder subgroup"},
      {"measurement": "detrimental effects on performance (motivation, motor control, attention, response speed)", "setting": "Long Evans rats [1]; PR 0.05-0.2 mg/kg and 5CSRTT 0.05-0.1 mg/kg S.C.", "value": "no detrimental effects of psilocybin were noted on performance"},
      {"measurement": "pro-cognitive effect, % hit", "setting": "Long Evans rats [2]; 0.05 mg/kg S.C., 24 rats, 75 s SD, 5 S ITI, 100 trials, vs. vehicle", "value": "increased (p=0.05, t-test) pro-cognitive effect"},
      {"measurement": "procognitive effect, % correct", "setting": "Long Evans rats [2]; 0.05 mg/kg S.C., 24 rats, standard conditions", "value": "slight non-significant increase in procognitive effect"},
      {"measurement": "response speed", "setting": "Long Evans rats [2]; 0.05 mg/kg, low attentive cohort, vs. vehicle", "value": "increased response speed in the low attentive cohort compared with vehicle; also recorded: Significant improvements"},
      {"measurement": "effect on accuracy (% correct and % hit)", "setting": "Long Evans rats [2]; 0.05 and 0.1 mg/kg, low attentive subgroup (N=8), vs. vehicle", "value": "strongly evident in the low attentive subgroup compared with vehicle; also recorded: Significant improvements"},
      {"measurement": "PREM and PSV responses", "setting": "Long Evans rats [3]", "value": "an increase (p=0.05, t-test) increase in PREM and PSV responses"},
      {"measurement": "AUC0-tlast, psilocybin, Mean", "setting": "[4]; 0.05 mg/kg s.c.", "value": 10.7, "unit": "ng·h/mL"},
      {"measurement": "Cmax, psilocybin, Mean", "setting": "[4]; 0.05 mg/kg s.c.", "value": 18.9, "unit": "ng/mL"},
      {"measurement": "Cmax/Dose, psilocybin, Mean", "setting": "[4]; 0.05 mg/kg s.c.", "value": 377, "unit": "kg·ng/mL/mg"},
      {"measurement": "tmax, psilocybin, Mean", "setting": "[4]; 0.05 mg/kg s.c.", "value": 36, "unit": "min"},
      {"measurement": "AUC0-tlast, psilocybin, Mean", "setting": "[4]; 0.1 mg/kg s.c.", "value": 11.4, "unit": "ng·h/mL"},
      {"measurement": "Cmax, psilocybin, Mean", "setting": "[4]; 0.1 mg/kg s.c.", "value": 31.4, "unit": "ng/mL"},
      {"measurement": "Cmax/Dose, psilocybin, Mean", "setting": "[4]; 0.1 mg/kg s.c.", "value": 314, "unit": "kg·ng/mL/mg"},
      {"measurement": "tmax, psilocybin, Mean", "setting": "[4]; 0.1 mg/kg s.c.", "value": 19.3, "unit": "min"},
      {"measurement": "AUC0-inf, psilocybin, Mean", "setting": "[4]; 1.0 mg/kg s.c.", "value": 47.9, "unit": "ng·h/mL"},
      {"measurement": "AUC0-inf/Dose, psilocybin, Mean", "setting": "[4]; 1.0 mg/kg s.c.", "value": 47.9, "unit": "kg·ng·h/mL/mg"},
      {"measurement": "AUC0-tlast, psilocybin, Mean", "setting": "[4]; 1.0 mg/kg s.c.", "value": 53.1, "unit": "ng·h/mL"},
      {"measurement": "Apparent t1/2, psilocybin, Mean", "setting": "[4]; 1.0 mg/kg s.c.", "value": 26.7, "unit": "min"},
      {"measurement": "Cmax, psilocybin, Mean", "setting": "[4]; 1.0 mg/kg s.c.", "value": 78.3, "unit": "ng/mL"},
      {"measurement": "Cmax/Dose, psilocybin, Mean", "setting": "[4]; 1.0 mg/kg s.c.", "value": 78.3, "unit": "kg·ng/mL/mg"},
      {"measurement": "MRT0-inf, psilocybin, Mean", "setting": "[4]; 1.0 mg/kg s.c.", "value": 44.8, "unit": "min"},
      {"measurement": "tmax, psilocybin, Mean", "setting": "[4]; 1.0 mg/kg s.c.", "value": 21.4, "unit": "min"},
      {"measurement": "AUC0-inf, psilocybin, Mean", "setting": "[4]; 10 mg/kg s.c.", "value": 2156, "unit": "ng·h/mL"},
      {"measurement": "AUC0-inf/Dose, psilocybin, Mean", "setting": "[4]; 10 mg/kg s.c.", "value": 216, "unit": "kg·ng·h/mL/mg"},
      {"measurement": "AUC0-tlast, psilocybin, Mean", "setting": "[4]; 10 mg/kg s.c.", "value": 1707, "unit": "ng·h/mL"},
      {"measurement": "Apparent t1/2, psilocybin, Mean", "setting": "[4]; 10 mg/kg s.c.", "value": 34, "unit": "min"},
      {"measurement": "Cmax, psilocybin, Mean", "setting": "[4]; 10 mg/kg s.c.", "value": 3595, "unit": "ng/mL"},
      {"measurement": "Cmax/Dose, psilocybin, Mean", "setting": "[4]; 10 mg/kg s.c.", "value": 359, "unit": "kg·ng/mL/mg"},
      {"measurement": "MRT0-inf, psilocybin, Mean", "setting": "[4]; 10 mg/kg s.c.", "value": 43, "unit": "min"},
      {"measurement": "tmax, psilocybin, Mean", "setting": "[4]; 10 mg/kg s.c.", "value": 30, "unit": "min"}
    ]}
  ]
}
